The values that follow are results of earlier work, collected in patent US20100221361A1, “STABLE OXIDIZING BROMINE COMPOSITION, METHOD OF MANUFACTURE AND USE THEREOF FOR BIOFOULING CONTROL” (priority 2009, published 2010).

For this data set the following is noted: in water.

As for `BrBr` [elemental liquid bromine, bromine], the solubility is given as below 4 g/ 100 g water.
